According to ChEMBL document CHEMBL1201862, “PubChem BioAssay data set” (2004):
Activity calls are given as the source filed them.

Key:
[1] = target: Kallikrein-7 (Homo sapiens, UniProt P49862); test: Fluorescence Intensity-based biochemical primary high throughput dose response assay to identify activators of kallikrein-7 (K7) zymogen.
[2] = target: Eukaryotic translation initiation factor 4E (Mus musculus, UniProt P63073); test: blockers of eIF4G binding by eIF4E – biochemical, TR-FRET, dose response (AID 855); format: functional;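 also: potency for disrupting eIF4E binding to eIF4GI seen as loss of FRET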
Chain of Eukaryotic translation initiation factor 4E (P63073 whole entry): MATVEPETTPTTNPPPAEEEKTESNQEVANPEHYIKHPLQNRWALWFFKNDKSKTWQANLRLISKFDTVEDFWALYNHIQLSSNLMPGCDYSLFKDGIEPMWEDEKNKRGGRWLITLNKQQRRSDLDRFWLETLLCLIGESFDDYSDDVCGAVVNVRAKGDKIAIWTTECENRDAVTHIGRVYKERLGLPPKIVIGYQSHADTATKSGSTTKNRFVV

[3] = target: Cytochrome P450 3A4 (Homo sapiens, UniProt P08684); details: Potency;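 also: confirmatory qHTS run detecting inhibitors and substrates of CYP3A4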
Chain of Cytochrome P450 3A4 (P08684 whole entry): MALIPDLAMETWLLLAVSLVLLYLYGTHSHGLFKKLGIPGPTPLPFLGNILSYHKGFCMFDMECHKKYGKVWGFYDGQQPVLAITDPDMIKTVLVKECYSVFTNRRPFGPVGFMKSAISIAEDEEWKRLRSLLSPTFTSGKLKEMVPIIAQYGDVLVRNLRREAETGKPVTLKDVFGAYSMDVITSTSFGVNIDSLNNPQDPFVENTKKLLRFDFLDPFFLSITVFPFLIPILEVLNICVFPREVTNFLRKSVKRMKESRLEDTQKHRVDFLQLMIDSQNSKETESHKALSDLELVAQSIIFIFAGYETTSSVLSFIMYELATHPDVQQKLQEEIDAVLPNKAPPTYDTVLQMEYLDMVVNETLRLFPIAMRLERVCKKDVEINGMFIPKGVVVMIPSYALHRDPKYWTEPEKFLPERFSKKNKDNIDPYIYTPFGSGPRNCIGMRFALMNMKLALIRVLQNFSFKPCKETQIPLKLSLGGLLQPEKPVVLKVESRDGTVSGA

[4] = target: Voltage-dependent T-type calcium channel subunit alpha-1H (Homo sapiens, UniProt O95180); format: functional;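 also: channel activity triggered by adding a high calcium stimulation buffer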
Chain of Voltage-dependent T-type calcium channel subunit alpha-1H (O95180 whole entry): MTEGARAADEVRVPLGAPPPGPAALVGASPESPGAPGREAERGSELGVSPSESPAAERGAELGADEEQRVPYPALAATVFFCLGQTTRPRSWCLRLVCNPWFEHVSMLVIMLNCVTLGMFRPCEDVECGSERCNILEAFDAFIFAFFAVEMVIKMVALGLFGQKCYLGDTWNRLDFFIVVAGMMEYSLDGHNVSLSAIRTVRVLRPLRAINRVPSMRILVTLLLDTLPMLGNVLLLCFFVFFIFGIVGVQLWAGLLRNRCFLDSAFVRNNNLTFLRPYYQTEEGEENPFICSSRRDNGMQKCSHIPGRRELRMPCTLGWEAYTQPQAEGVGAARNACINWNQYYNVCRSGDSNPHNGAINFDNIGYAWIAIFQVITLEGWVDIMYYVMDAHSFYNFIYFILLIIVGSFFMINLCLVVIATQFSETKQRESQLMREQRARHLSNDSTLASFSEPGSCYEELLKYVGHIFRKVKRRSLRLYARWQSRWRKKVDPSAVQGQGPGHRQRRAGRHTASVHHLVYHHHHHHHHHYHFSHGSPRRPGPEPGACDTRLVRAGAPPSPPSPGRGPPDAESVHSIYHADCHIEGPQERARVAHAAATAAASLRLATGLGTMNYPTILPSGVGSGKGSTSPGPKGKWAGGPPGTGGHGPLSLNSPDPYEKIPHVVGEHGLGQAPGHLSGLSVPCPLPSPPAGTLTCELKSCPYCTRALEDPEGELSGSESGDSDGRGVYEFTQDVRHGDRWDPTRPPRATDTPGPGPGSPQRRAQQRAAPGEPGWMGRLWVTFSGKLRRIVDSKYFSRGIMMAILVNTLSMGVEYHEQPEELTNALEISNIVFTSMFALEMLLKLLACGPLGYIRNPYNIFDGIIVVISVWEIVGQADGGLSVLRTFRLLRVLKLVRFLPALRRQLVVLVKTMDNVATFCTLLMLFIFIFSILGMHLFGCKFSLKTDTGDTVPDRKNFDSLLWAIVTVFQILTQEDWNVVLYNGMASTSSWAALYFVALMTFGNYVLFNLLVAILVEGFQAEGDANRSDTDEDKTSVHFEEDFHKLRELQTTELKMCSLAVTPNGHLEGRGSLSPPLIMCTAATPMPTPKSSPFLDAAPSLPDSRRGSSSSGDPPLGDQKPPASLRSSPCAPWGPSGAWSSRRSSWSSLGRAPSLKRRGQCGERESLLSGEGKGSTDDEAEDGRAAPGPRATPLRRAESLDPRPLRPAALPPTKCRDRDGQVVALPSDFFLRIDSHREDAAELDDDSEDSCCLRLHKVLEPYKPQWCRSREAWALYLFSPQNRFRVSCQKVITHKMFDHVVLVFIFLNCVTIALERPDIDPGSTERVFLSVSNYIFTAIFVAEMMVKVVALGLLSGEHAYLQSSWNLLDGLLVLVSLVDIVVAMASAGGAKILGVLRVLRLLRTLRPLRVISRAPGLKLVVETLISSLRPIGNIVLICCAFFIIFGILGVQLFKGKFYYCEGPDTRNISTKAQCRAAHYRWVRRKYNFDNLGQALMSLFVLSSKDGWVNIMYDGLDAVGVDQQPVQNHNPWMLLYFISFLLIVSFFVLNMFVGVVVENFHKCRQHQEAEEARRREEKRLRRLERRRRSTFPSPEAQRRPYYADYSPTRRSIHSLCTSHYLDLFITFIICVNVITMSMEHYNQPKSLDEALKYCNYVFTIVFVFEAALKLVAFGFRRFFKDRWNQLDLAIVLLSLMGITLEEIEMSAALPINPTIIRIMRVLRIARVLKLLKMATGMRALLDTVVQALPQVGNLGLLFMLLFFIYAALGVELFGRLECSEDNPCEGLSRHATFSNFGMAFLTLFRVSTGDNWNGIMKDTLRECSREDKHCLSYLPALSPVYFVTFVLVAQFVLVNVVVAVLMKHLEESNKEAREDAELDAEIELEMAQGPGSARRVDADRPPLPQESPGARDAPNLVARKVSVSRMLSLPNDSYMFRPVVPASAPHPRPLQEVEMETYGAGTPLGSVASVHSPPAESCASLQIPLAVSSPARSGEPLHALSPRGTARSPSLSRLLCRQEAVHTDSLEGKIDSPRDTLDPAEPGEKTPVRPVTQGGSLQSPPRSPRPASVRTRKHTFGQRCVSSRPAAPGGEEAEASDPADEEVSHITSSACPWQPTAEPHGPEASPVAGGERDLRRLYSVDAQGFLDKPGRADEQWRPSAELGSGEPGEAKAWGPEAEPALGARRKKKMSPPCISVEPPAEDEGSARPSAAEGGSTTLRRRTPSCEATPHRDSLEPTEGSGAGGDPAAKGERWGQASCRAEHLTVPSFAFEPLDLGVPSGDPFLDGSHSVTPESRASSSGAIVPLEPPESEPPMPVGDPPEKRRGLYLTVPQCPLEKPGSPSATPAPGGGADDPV

[5] = target: T1, Microphthalmia-associated transcription factor (Homo sapiens, UniProt O75030); test: reducers of TRPM1 reporter luminescence, concentration series – cell-based, SK-MEL-5, cherry-picked, set 3, MITF inhibitor project, dose response (AID 493073); format: functional;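 also: SK-MEL-5 melanoma cells with luciferase driven by the MITF target TRPM1 promoter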
T1 sequence (O75030 whole entry): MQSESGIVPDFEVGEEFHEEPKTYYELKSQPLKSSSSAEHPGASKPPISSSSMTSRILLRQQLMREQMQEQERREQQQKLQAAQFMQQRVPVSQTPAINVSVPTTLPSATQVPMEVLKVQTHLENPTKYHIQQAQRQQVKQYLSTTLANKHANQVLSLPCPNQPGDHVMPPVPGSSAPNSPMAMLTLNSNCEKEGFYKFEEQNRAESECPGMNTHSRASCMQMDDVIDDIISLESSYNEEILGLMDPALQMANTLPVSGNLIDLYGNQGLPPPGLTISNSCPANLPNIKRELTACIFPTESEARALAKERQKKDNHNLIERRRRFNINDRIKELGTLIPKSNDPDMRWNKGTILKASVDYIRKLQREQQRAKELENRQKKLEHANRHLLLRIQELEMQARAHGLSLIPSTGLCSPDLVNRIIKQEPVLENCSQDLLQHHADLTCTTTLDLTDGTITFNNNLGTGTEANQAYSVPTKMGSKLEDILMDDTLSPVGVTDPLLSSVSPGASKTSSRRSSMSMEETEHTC

[6] = target: Paired box protein Pax-8 (Homo sapiens, UniProt Q06710); test: PAX8 transcriptional activity inhibition in RMG-I – RMG-I cells, luciferase, cherry-pick, dose response (AID 687027); format: functional, cell-based;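 also: luciferase reporter driven by Pax8 target thyroperoxidase promoter measured by SteadyGlo luminescence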
Chain of Paired box protein Pax-8 (Q06710 whole entry): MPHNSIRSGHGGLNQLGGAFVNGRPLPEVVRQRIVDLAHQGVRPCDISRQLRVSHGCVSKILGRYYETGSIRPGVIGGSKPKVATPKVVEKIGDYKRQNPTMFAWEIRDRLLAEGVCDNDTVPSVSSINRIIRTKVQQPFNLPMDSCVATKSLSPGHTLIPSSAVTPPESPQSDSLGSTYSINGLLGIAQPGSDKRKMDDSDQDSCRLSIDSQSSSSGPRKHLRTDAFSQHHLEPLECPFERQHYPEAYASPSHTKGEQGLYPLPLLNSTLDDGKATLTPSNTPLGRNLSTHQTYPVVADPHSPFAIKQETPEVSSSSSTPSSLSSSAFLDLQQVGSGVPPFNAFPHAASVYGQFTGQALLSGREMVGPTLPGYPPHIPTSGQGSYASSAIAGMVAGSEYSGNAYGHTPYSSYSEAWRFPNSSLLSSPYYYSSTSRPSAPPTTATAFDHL

[7] = A549 cell cytotoxicity, dose response, cytotoxicity control, plate reader, cherry-pick, antagonist series (AID 743412); format: functional, cell-based
[8] = toxicity toward HepG2 liver cells – cell-based, plate reader, cherry-pick, antagonist series, cytotoxicity control, dose response (AID 743416); format: functional
[9] = blockers of bursicon-stimulated LGR2 cAMP reporter – cell-based, HEK293, CRE-luciferase reporter, cherry pick, set 2, dose response (AID 743343); format: functional;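 also: transfected cells were stimulated with diluted bursicon conditioned medium after compound addition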
[10] = blockade of melanocortin 4 receptor signaling – cell-based, plate reader, cherry pick, counter-screen for LGR2 antagonist project, dose response (AID 743444); format: functional;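 also: transfected HEK 293 cells stimulated with alpha-MSH peptide; potency of inhibitors of the alpha-MSH evoked signal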
[11] = viability loss in HEK293 cells – cell-based, plate reader, cherry-picked samples, cytotoxicity control, dose response (AID 743446); format: functional
[12] = target: T2, Aminopeptidase N (Plasmodium falciparum FcB1/Columbia, UniProt O96935); test: malaria alanyl aminopeptidase activity blockers – biochemical, fluorogenic H-Leu-NHMec substrate, 1536-well (AID 1445); design: species or system Plasmodium falciparum 3D7, 3D7
T2 sequence (O96935 whole entry): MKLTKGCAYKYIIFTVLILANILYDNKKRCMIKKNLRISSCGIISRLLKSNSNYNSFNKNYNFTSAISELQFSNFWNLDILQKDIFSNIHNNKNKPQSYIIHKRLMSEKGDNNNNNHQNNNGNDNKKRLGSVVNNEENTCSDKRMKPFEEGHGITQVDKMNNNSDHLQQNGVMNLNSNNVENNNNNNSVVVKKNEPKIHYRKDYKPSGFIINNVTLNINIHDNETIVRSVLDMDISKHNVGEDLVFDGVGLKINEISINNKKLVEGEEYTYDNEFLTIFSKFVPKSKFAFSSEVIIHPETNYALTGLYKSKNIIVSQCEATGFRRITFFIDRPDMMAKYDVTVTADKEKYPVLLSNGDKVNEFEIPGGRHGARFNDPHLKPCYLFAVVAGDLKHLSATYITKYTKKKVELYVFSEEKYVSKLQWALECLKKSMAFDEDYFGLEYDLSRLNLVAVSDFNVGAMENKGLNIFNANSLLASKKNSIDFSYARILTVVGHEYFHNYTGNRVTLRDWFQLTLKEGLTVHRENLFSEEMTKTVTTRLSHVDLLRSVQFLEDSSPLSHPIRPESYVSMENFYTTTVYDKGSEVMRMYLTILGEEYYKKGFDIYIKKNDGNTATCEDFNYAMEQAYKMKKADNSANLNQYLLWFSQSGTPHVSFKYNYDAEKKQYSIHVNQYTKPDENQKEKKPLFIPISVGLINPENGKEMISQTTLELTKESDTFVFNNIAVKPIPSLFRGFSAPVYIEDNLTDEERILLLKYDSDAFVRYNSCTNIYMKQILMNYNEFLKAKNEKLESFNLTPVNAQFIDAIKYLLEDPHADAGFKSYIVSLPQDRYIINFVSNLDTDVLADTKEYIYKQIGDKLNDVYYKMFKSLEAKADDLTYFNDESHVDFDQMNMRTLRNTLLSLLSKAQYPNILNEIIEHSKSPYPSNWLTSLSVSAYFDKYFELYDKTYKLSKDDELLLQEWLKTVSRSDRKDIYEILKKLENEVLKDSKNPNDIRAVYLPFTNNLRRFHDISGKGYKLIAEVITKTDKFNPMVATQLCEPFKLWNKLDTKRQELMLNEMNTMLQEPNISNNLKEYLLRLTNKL

[13] = target: T3, Corticotropin-releasing factor receptor 2/Corticotropin-releasing factor-binding protein (Homo sapiens, UniProt P24387+Q13324); test: Dose Response confirmation of uHTS hits for small molecule antagonists of the CRF-binding protein and CRF-R2 receptor complex.; format: functional; details: read-out: IC50_Mean
T3 sequence (Q13324 whole entry): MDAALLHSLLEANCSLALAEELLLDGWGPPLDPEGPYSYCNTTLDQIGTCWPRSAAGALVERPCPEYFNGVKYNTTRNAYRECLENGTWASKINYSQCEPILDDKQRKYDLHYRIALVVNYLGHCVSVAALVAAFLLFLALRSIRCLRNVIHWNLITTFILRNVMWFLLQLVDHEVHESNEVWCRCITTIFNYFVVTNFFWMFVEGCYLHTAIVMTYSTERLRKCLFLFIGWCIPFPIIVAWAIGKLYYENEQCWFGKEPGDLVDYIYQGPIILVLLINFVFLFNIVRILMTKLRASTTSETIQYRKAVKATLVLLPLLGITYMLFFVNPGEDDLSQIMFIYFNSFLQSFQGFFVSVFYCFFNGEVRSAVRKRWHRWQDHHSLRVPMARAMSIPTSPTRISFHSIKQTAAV
T3 sequence (P24387 whole entry): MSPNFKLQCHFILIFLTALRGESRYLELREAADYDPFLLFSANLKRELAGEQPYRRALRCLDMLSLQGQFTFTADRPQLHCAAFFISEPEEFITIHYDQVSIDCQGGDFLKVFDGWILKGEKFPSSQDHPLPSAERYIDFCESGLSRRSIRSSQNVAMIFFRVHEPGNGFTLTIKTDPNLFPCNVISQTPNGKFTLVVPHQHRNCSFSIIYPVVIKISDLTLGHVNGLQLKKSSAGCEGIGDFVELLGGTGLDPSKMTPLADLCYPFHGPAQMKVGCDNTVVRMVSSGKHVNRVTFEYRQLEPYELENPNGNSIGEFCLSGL

[14] = target: T3, Corticotropin-releasing factor receptor 2/Corticotropin-releasing factor-binding protein; test: activators of CRF receptor 2 with binding protein – uHTS hits, confirmation (AID 602473); format: functional; details: read-out: EC50_Mean
[15] = blockers of CRF-binding protein–CRF-R2 complex – cell-based, uHTS hits, 384-well, dose response (AID 651639); format: functional, Homo sapiens; details: read-out: IC50_Mean
[16] = OVCAR-3 cell viability loss – plate reader, dry powder samples, PAX8 inhibitor project, dose response (AID 743044); format: functional, cell-based
[17] = OVCAR8 cell viability loss – plate reader, dry powder samples, PAX8 project, dose response (AID 743197); format: functional, cell-based; details: OVCAR-8
[18] = A cytotoxicity screen of small molecule inhibitors of the PhoP region in Salmonella typhi identified in the primary screen. [Related pubchem assays: 1850, 1864, 1985 ]; format: functional
[19] = reduction of Shn3 3'UTR-driven luciferase in osteoblasts – cell-based, Clone20 osteoblasts, firefly luciferase, cherry-picked, dose response (AID 624132); format: functional;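 also: firefly luciferase luminescence from reporter carrying the Shn3 3'UTR in osteoblasts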
[20] = loss of viability in HepG2 cells – cell-based, CellTiter-Glo, cherry-picked, cytotoxicity control for Shn3 inhibitor project, dose response (AID 624134); format: functional
[21] = non-specific 3'UTR reporter inhibition in Clone20-Shn3RL – cell-based, Renilla luciferase, cherry-picked, counter-screen for Shn3 inhibitor project, dose response (AID 624133); format: functional
[22] = system: Streptococcus sp. 'group A'; test: Streptococcus pyogenes SK(-)GAS viability under kanamycin – luminescence, BacTiterGlo, confirmation, counter-screen for streptokinase expression inhibitor project, dose response (AID 1900); format: functional, organism-based
[23] = system: Streptococcus; test: GAS UMAA2166 growth inhibition – luminescence, BacTiterGlo, counter-screen for streptokinase expression inhibitor project, dose response (AID 1915); format: functional, organism-based;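 also: potency for reduction of bacterial viability or growth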
[24] = viability of PTEN-deleted HCT116 cells – cell-based, HCT116 PTEN knockout, dose response (AID 1047); format: functional;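 also: HCT116 colon tumor cells with PTEN knocked out; cells exposed to compound for 60 hours before readout; potency for loss of cell viability measured by luminescence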
[25] = viability of HCT116 lacking mutant beta-catenin – cell-based, human colon tumor, dose response (AID 1045); format: functional;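 also: HCT116 colon tumor cells with beta catenin knocked out; cells exposed to compound for 60 hours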
[26] = target: T4, Polyadenylate-binding protein 1 (Homo sapiens, UniProt P11940); test: MLLE binding blockers, Cy5 peptide tracer – biochemical, fluorescence polarization, Cy5-PAM2 peptide, secondary, miRNA deadenylation inhibitor project, dose response (AID 602260); format: functional; details: read-out: IC50_Mean
T4 sequence (P11940 whole entry, the tested form may be a part): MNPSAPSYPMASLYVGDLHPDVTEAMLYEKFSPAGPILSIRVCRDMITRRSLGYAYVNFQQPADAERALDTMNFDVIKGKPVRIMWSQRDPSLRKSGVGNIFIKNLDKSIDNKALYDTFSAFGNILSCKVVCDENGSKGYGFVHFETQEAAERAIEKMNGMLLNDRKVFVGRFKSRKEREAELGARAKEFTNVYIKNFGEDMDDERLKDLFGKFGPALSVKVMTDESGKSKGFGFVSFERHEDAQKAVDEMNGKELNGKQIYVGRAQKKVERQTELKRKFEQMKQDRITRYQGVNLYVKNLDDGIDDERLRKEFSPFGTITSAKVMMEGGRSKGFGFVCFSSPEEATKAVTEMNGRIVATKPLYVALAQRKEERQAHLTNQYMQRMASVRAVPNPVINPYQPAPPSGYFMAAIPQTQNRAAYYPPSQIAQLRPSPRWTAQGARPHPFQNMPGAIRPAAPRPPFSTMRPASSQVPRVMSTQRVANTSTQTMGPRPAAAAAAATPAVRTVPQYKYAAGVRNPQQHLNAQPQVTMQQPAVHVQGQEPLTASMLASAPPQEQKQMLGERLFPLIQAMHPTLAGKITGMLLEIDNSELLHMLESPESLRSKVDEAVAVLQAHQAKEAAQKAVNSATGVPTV

[27] = target: T4, Polyadenylate-binding protein 1; test: MLLE domain peptide-binding blockers, IC50 – biochemical, fluorescence polarization, FITC-PAM2 peptide, dose response (AID 602259); format: functional; details: read-out: IC50_Mean

Chain of Kallikrein-7 (P49862 whole entry): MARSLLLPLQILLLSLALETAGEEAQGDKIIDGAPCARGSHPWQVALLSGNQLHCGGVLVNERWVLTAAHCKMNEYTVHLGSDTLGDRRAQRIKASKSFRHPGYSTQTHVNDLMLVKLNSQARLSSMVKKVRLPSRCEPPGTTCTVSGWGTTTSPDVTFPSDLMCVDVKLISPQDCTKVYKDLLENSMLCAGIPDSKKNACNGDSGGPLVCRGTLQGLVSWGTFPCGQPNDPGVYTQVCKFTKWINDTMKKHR

## CC1=C(C#N)C(c2cccnc2)C2=C(O)CC(C)(C)CC2=N1 (stereo not given)
[1]
  EC50: > 69.5 µM (inactive)

## Cc1sc(NC(=O)Cn2nc(C(F)(F)F)cc2C)c(C(=O)OC(C)C)c1C
[2]
  IC50: > 64 µM (inactive)

## CC1(C(=O)NCCN2CCOCC2)C=CCN1C(=O)c1ccccc1 (stereo not given)
[3]
  AC50: 25.1 µM (inconclusive)

## CCN(CC)S(=O)(=O)c1cc(C(=O)Nc2ccc(Cl)cn2)ccc1C
[4]
  EC50: 2.3 µM (active)

## Cn1nnnc1Sc1ncnc2scc(-c3ccsc3)c12
[5]
  AC50: 7.95 µM (active)
[6]
  AC50: 2.56 µM (active)
[7]
  AC50: 9.63 µM (active)
[8]
  AC50: 10.9 µM (active)
[9]
  AC50: 6.32 µM (active)
[10]
  AC50: 8.27 µM (active)
[11]
  AC50: 9.67 µM (active)

## CC(C)N1C(=O)S/C(=C/c2ccccc2OCc2ccc(C(=O)O)cc2)C1=O
[12]
  IC50: 38.1 µM (active)
[13]
  IC50: 25.5 µM (active)
[14]
  EC50: > 53 µM (inactive)
[15]
  IC50: > 20 µM (inactive)

## Cc1cc(C)n(-c2nnc3n2N=C(c2ccccc2)CS3)n1
[2]
  IC50: > 64 µM (inactive)

## CCOC(=O)C1CCN(c2[nH]cnc3c4c(OC)cccc4nc2-3)CC1
[1]
  EC50: 8.33 µM (active)

## CCCCCCN(C(=O)CCCCCN1C(=O)NC(c2ccc(-c3ccccc3)cc2)C(C(=O)OCc2ccccc2)=C1C)C(C(=O)NCCCC)c1cccc(C(=O)OC)c1 (stereo not given)
[3]
  AC50: 2.51 µM (inconclusive)

## CC(=O)c1ccc(-c2cccs2)s1
[12]
  IC50: 40 µM (active)
[13]
  IC50: > 47.1 µM (inactive)
[14]
  EC50: > 53 µM (inactive)

## Cc1ccc(-n2c(Cc3cccn3C)nnc2SCC(=O)Nc2ccc3c(c2)OCO3)cc1
[4]
  EC50: 1.25 µM (active)

## C[C@@H]1O[C@@H](O[C@@H]2[C@@H](O)[C@H](OCCc3ccc(O)c(O)c3)O[C@H](CO[C@@H]3O[C@H](CO)[C@@H](O)[C@H](O)[C@H]3O)[C@H]2OC(=O)/C=C/c2ccc(O)c(O)c2)[C@H](O)[C@H](O)[C@H]1O
[3]
  AC50: 7.94 µM (inconclusive)

## O=C(Nc1ccccc1)N1CCCCN2[C@H](C1)[C@@H](c1ccc(C#Cc3ccccc3)cc1)[C@@H]2CO
[6]
  AC50: 10.5 µM (active)
[16]
  AC50: 26 µM (active)
[17]
  AC50: 26 µM (active)

## C=CCCCCCCCCCCC/C=C/C(O)COC(C)=O (stereo not given) [DEHYDROAVOCATIN-1-ACETATE]
[3]
  AC50: 39.8 µM (inconclusive)

## COc1ccc(O)c(/C=C(\C#N)C(=O)Nc2cccnc2)c1
[2]
  IC50: > 64 µM (inactive)

## c1ccc2sc(N3CN(CCN4CCOCC4)CN(c4nc5ccccc5s4)C3)nc2c1
[18]
  EC50: > 50 µM (active)
[4]
  EC50: 5.23 µM (active)

## CCC(CC)CC1CN2CCc3cc(OC)c(OC)cc3C2CC1(O)CC (stereo not given)
[19]
  AC50: 2 µM (active)
[20]
  AC50: > 70 µM (inactive)
[21]
  AC50: 3.89 µM (active)
[1]
  EC50: 8.32 µM (active)

## CCCC(=O)Nc1c(-c2ccc(OC)cc2)c(=O)c2ccccc2n1C
[1]
  EC50: 49.5 µM (inactive)

## CSCc1nnc(NC(=O)c2ccc(S(=O)(=O)N(CC(C)C)CC(C)C)cc2)o1
[22]
  EC50: 1.01 µM (active)
[23]
  EC50: 2.51 µM (active)
[4]
  EC50: 3.07 µM (active)

## CCOC(=O)c1c(CSC(=N)N)n(-c2ccc(Br)cc2)c2cc(Br)c(OC(C)=O)cc12
[24]
  EC50: 16.1 µM (active)
[25]
  EC50: 14.3 µM (active)
[2]
  IC50: > 64 µM (inactive)

## Cc1ccc(-c2nnn(C(C)C(=O)N3c4ccccc4CCc4ccccc43)n2)cc1 (stereo not given)
[4]
  EC50: 7.47 µM (active)

## CN1C=CC2=C(C#N)C(N)C(C#N)(C#N)[C@H](c3ccccc3)[C@H]2C1 (stereo not given in full)
[26]
  IC50: > 66 µM (inactive)
[27]
  IC50: 58.9 µM (inactive)
[1]
  EC50: > 69.5 µM (inactive)
